Square brackets hold non-standard residues; d marks the D form. Peptide text beside a SMILES is read from it. Phe(4-COOH) = N[C@@H](Cc1ccc(C(=O)O)cc1)C(=O)O; 2Nal = N[C@@H](Cc1ccc2ccccc2c1)C(=O)O; cisHyp = O=C(O)[C@@H]1C[C@H](O)CN1
Assays:
PC12 cells = assay: Cell viability test
[1] = biological target: T1, alpha7 nicotinic receptor (Rattus norvegicus, UniProt Q05941); assay: Calcium influx test in PC12 cells; type: cell-based; details: compound alone, higher doses 1 µM to 10 µM
T1 construct: endogenous in cells; host or cells: PC12 cells
T1 sequence (Q05941 23-502): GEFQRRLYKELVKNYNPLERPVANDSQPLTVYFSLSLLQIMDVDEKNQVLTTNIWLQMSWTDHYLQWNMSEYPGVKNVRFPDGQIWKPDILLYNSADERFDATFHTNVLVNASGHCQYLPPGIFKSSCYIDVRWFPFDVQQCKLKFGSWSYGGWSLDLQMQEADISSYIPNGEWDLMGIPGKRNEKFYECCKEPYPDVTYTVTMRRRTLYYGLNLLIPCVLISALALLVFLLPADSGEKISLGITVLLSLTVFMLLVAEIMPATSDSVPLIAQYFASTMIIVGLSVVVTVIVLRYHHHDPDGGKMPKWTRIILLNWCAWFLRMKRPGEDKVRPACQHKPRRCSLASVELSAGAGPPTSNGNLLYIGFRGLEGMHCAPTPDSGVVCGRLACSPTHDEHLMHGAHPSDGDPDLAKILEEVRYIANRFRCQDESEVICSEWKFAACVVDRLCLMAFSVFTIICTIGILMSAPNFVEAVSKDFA

In the case of `CC(=O)N[C@@H](Cc1ccc2ccccc2c1)C(=O)N[C@@H](Cc1ccc(C(=O)O)cc1)C(=O)N1C[C@@H](O)C[C@H]1C(N)=O` [Tri01, 4-((S)-2-((S)-2-acetamido-3-(naphthalen-2-yl)propanamido)-3-((2S,4S)-2-carbamoyl-4-hydroxypyrrolidin-1-yl)-3-oxopropyl)benzoate] (Ac-[2Nal]-[Phe(4-COOH)]-[cisHyp]-NH2), the PC12 cell viability (PC12 cells; compound alone, 0.1µM to 10µM) is reported as “toxic in a concentration-dependent manner”, the PC12 cell viability (PC12 cells; in the presence of T30 1µM) is reported as “potentiates the toxicity induced by T30” and the “calcium influx by the specific alpha7 agonist PNU282987” value [1] is reported as “inactive”.
